Test results published in patent publication US11304939B2, “Methods for treating oral cancers” (Chang Gung University, priority 2020, dated 2022).

Tests used:
SAS cells xenograft = assay: SAS cell line-derived xenograft (OSCC CDX) tumor growth; type: in vivo, NOD/SCID mice
Method: NOD/SCID mice and NOD.Cg-Prkdcscid Il2rgtm1Wjl/SzJ (NSG) mice were housed in an animal facility at Chang Gung University. For SAS cell line-derived xenograft (CDX) animal model, SAS cells were prepared in serum-free DMEM (5×10^6 cells per ml). SAS cell suspensions (100 μl) were injected subcutaneously into NOD/SCID mice (6-8 weeks), and tumors were established after 3-4 weeks. Once xenografts reached 300-500 mm^3, mice were randomly divided into the treatment groups or control groups. PF477736 was used at the dose of 10 or 20 mg/kg, and administered intraperitoneally 4 days/week. BYL719 was used at the dose of 25 or 50 mg/kg, and administered orally 5 days/week. Cisplatin was used at the dose of 5 mg/kg, and administered intraperitoneally 2 days/week. During the course of treatment (two to three weeks), the tumor size was monitored twice weekly, and the tumor volumes were calculated.

SAS cells [1] = assay: MTT cell viability assay, SAS cells; type: cell-based; settings: 48 hours; for cell viability / proliferation (MTT): vs vehicle control
Method: (§1) For cell viability assay, approximately 5×10^4 cells were seeded into each well of a 96-well plate, and treated with vehicle control or inhibitors at the indicated concentrations for 48 hours in complete medium, followed by MTT viability assay. The absorbance was read at 540 nm in a multiwell spectrophotometer (SpectraMax M2; Molecular Devices, USA). All samples were run in triplicate. For apoptosis assay, cells were plated in 6-well dishes, and treated with vehicle control or various inhibitors at the indicated concentrations for 48 hours. Cells were then harvested, washed with PBS, and stained with 2 μl an FITC-conjugated Annexin V antibody (Invitrogen, USA) and 50 μg/ml propidium iodide (Sigma-Aldrich, USA), followed by flow cytometry analysis (Attune NxT; Invitrogen, USA) and data analysis by FlowJo software (Tree Star, Inc.).

OEC-M1 cells [2] = assay: MTT cell viability assay, OEC-M1 cells; type: cell-based; settings: 48 hours; for cell viability / proliferation (MTT): vs vehicle control
Method: as §1

OSCC cells = assay: apoptosis assay (Annexin V staining), OSCC cells; type: cell-based; settings: increasing concentration
Method: as §1

[3] = system: SAS, OC3, and OEC-M1 cells; assay: MTT cell viability assay, one range over three OSCC cell lines; type: cell-based; settings: OECM1
Method: as §1

patient #2 PDX = assay: OSCC PDX model, patient #2, tumor growth; type: in vivo, NSG mice; settings: PF477736 20 mg/kg; for growth of PDX tumors vs control: Cisplatin 5 mg/kg, combined vs control p=0.006
Method: (§2) For OSCC PDX animal model, three patients of newly diagnosed were recruited, and written consents were obtained in accordance with the protocols approved by the Institutional Review Board of Chang Gung Memorial Hospital. Patient tumor explants were prepared from surgical specimens, and engrafted into NSG mice within 2 hours. Briefly, fresh tumor tissues were rinsed in PBS containing an antibiotic-antimycotic solution (Gibco, USA), and chopped into small pieces (˜1 mm^3). Each NSG mouse was subcutaneously grafted with 50-100 mg tumors in the left flank. When tumors reached 400-500 mm^3 in size, animals were randomly assigned into control and different treatment groups. Treatments for each single drug were the same as those used in the SAS CDX model as described above. For combined treatments, for the combination therapy of Cisplatin and PF477736, Cisplatin was used at the dose of 5 mg/kg, and administered intraperitoneally 2 days/week for one week; whilst PF477736 was used at the dose of 20 mg/kg, and administered intraperitoneally 4 days/week for one week; and for the combination therapy of PF477736 and BYL719, PF477736 was used at the dose of 20 mg/kg, and administered intraperitoneally 4 days/week for one week; whilst BYL719 was used at the dose of 50 mg/kg, and administered orally 5 days/week for two weeks. Tumors were measured with calipers, and the volume was calculated as ½×length×width^2. Three PDX models in total were evaluated for response to single treatments or combined treatments. All animal experiments were approved by the Institutional Animal Care and Use Committee of Chang Gung University.

SAS cells [4] = assay: colony-forming assay, SAS cells; type: cell-based
AKT = assay: immunoblotting of phosphorylation of AKT; type: cell-based; settings: after UV exposure
Method: After treatments, whole-cell lysates from each sample were prepared by lysed with RIPA lysis buffer (1% NP_40, 20 mM Tris-HCl (pH 7.5), 150 mM NaCl, 1 mM Na3VO4, 5 mM EDTA (pH 8.0), 10% glycerol, PMSF, and 0.2% protease inhibitor) for 15-30 minutes on ice, and centrifuged at 15,000×g for 20 min at 4° C. Equal amounts of protein from each sample were fractionated by SDS-PAGE, and transferred to a PVDF membrane, which was incubated with the appropriate primary antibody. Proteins were detected with HRP-conjugated secondary antibodies and ECL substrate (PerkinElmer, USA).
In the present study, the efficacy of the PI3K inhibitors (e.g., BYL719, GDC-0941, and GSK1059615) toward eliminating OSCC cell lines (including SAS, OEC-M1, and OC3) was examined. First of all, cell proliferation assays after the PI3K inhibitors (i.e., BYL719, GDC-0941, and GSK1059615) treatments were performed, and the results were provided in FIG. 3A. […] The IC50 for BYL719 in the SAS, OC3, and OECM1 cell lines ranged from 8 to 20 μM (FIG. 3A). Another indication for measuring anti-cancer activity was by investigating the colony-forming ability of SAS and OEC-M1 cells treated with BYL719. […] The effects for PI3K inhibitors on the PI3K/AKT/mTOR signaling pathway were studied as well.

patient #1 PDX = assay: OSCC PDX model, patient #1, tumor growth; type: in vivo, NSG mice; settings: PF477736 20 mg/kg; for growth of PDX tumors vs control: Cisplatin 5 mg/kg, combined vs control p=0.0024
Method: as §2

OEC-M1 cells [5] = assay: colony-forming assay, OEC-M1 cells; type: cell-based
patient #3 PDX = assay: OSCC PDX model, patient #3, tumor growth; type: in vivo, NSG mice; settings: Cisplatin 5 mg/kg, PF477736 20 mg/kg, combined vs control p=0.03
Method: For OSCC PDX animal model, three patients of newly diagnosed were recruited, and written consents were obtained in accordance with the protocols approved by the Institutional Review Board of Chang Gung Memorial Hospital. Patient tumor explants were prepared from surgical specimens, and engrafted into NSG mice within 2 hours. Briefly, fresh tumor tissues were rinsed in PBS containing an antibiotic-antimycotic solution (Gibco, USA), and chopped into small pieces (˜1 mm^3). Each NSG mouse was subcutaneously grafted with 50-100 mg tumors in the left flank. When tumors reached 400-500 mm^3 in size, animals were randomly assigned into control and different treatment groups. Treatments for each single drug were the same as those used in the SAS CDX model as described above. […] Tumors were measured with calipers, and the volume was calculated as ½×length×width^2. Three PDX models in total were evaluated for response to single treatments or combined treatments. […]

OC3 cells = assay: apoptosis assay (Annexin V and PI staining), OC3 cells; type: cell-based; settings: 48 hours
Method: as §1

CHK1 = target: T1, CHK1 (Homo sapiens, UniProt O14757); assay: immunoblotting of UV-induced phosphorylation of CHK1 at Ser296 in SAS cells; settings: SAS cells after UV exposure
T1 sequence (O14757 1-476): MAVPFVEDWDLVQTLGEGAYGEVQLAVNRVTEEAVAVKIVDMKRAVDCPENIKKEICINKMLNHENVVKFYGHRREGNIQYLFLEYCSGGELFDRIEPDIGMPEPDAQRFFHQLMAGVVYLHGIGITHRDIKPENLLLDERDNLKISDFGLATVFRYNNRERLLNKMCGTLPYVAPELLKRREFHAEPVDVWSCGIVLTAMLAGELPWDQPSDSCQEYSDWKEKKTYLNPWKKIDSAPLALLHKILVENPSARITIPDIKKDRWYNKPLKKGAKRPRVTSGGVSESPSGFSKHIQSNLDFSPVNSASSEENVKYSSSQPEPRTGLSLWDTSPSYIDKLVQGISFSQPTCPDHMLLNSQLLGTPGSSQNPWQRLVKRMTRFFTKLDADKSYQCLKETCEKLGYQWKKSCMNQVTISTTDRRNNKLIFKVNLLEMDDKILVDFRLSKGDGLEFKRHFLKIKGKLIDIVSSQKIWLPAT
Method: After treatments, whole-cell lysates from each sample were prepared by lysed with RIPA lysis buffer (1% NP—40, 20 mM Tris-HCl (pH 7.5), 150 mM NaCl, 1 mM Na3VO4, 5 mM EDTA (pH 8.0), 10% glycerol, PMSF, and 0.2% protease inhibitor) for 15-30 minutes on ice, and centrifuged at 15,000×g for 20 min at 4° C. Equal amounts of protein from each sample were fractionated by SDS-PAGE, and transferred to a PVDF membrane, which was incubated with the appropriate primary antibody. Proteins were detected with HRP-conjugated secondary antibodies and ECL substrate (PerkinElmer, USA).
On the molecular level, the biochemical effects of the three CHK1 inhibitors in SAS cells were characterized. DNA damage was first induced by UV exposure, and the CHK1 inhibitors were then applied to the injured cells.

SAS cells [6] = assay: apoptosis assay (Annexin V and PI staining), SAS cells; type: cell-based; settings: 48 hours
Method: as §1

OEC-M1 cells [7] = assay: apoptosis assay (Annexin V and PI staining), OEC-M1 cells; type: cell-based; settings: 48 hours
Method: as §1

Question: With `Cc1nc(NC(=O)N2CCC[C@H]2C(N)=O)sc1-c1ccnc(C(C)(C)C(F)(F)F)c1` [BYL719, Alpelisib] as the molecule, how does the “tumor growth vs control” value (SAS cells xenograft; 50 mg/kg orally 5 days/week, p=0.011) read?
Answer: significantly suppressed tumor growth

Question: And the “cell viability / proliferation (MTT)” value (SAS cells [1])?
Answer: clear reduction in proliferation

Question: And the “cell viability / proliferation (MTT)” value (OEC-M1 cells [2])?
Answer: clear reduction in proliferation

Question: What about the “cell apoptosis (Annexin V staining)” value (OSCC cells) of the same molecule?
Answer: gradually elevation in apoptosis

Question: And the IC50 [3]?
Answer: 8 to 20 µM

Question: And the “tumor growth vs control” value (patient #2 PDX; BYL719 50 mg/kg, monotherapy p=0.16, combined p=0.036)?
Answer: slightly inhibited tumor growth

Question: And the colony-forming ability (SAS cells [4])?
Answer: compromised in a dose-dependent manner

Question: And the “phosphorylation of AKT” value (AKT)?
Answer: specifically inhibited phosphorylation of AKT

Question: What about the “tumor growth vs control” value (patient #1 PDX; BYL719 50 mg/kg, monotherapy p=0.66, combined p=0.844) of the same molecule?
Answer: could not inhibit tumor growth

Question: What about the colony-forming ability (OEC-M1 cells [5]) of the same molecule?
Answer: compromised in a dose-dependent manner

Question: `N.N.[Cl][Pt][Cl]` [Cisplatin] was tested. Which “tumor growth vs control” value (SAS cells xenograft; 5 mg/kg intraperitoneally 2 days/week, p=0.03) did it give?
Answer: exhibited an ability to inhibit tumor growth

Question: And the “growth of PDX tumors vs control” value (patient #3 PDX)?
Answer: partially but not significantly inhibit the growth

Question: And the “growth of PDX tumors vs control” value (patient #2 PDX)?
Answer: partially but not significantly inhibit the growth

Question: And the “growth of PDX tumors vs control” value (patient #1 PDX)?
Answer: partially but not significantly inhibit the growth

Question: Which “cell viability / proliferation (MTT)” value (SAS cells [1]) does the source give for `CS(=O)(=O)N1CCN(Cc2cc3nc(-c4cccc5[nH]ncc45)nc(N4CCOCC4)c3s2)CC1` [GDC-0941, Pictilisib] here?
Answer: clear reduction in proliferation

Question: What about the “cell viability / proliferation (MTT)” value (OEC-M1 cells [2]) of the same molecule?
Answer: clear reduction in proliferation

Question: And the “phosphorylation of AKT” value (AKT)?
Answer: specifically inhibited phosphorylation of AKT

Question: For `O=C1NC(=O)/C(=C/c2ccc3nccc(-c4ccncc4)c3c2)S1` [GSK1059615, (Z)-5-((4-(pyridin-4-yl)quinolin-6-yl)methylene)thiazolidine-2,4-dione], which “cell viability / proliferation (MTT)” value (SAS cells [1]) is on record?
Answer: clear reduction in proliferation

Question: And the “cell viability / proliferation (MTT)” value (OEC-M1 cells [2])?
Answer: clear reduction in proliferation

Question: And the “phosphorylation of AKT” value (AKT)?
Answer: specifically inhibited phosphorylation of AKT

Question: With `COc1cccc(OCCCN)c1-c1cc(Nc2cnc(C#N)cn2)n[nH]1` [LY2606368, Prexasertib] as the molecule, how does the “cell viability / proliferation (MTT)” value (SAS cells [1]) read?
Answer: dose-dependent inhibition

Question: What about the “cell viability / proliferation (MTT)” value (OEC-M1 cells [2]) of the same molecule?
Answer: dose-dependent inhibition

Question: `Cn1cc(-c2[nH]c3cc(NC(=O)[C@H](N)C4CCCCC4)cc4c3c2C=NNC4=O)cn1` [PF477736, (R)-2-amino-2-cyclohexyl-N-(2-(1-methyl-1H-pyrazol-4-yl)-6-oxo-5,6-dihydro-1H-[1,2]diazepino[4,5,6-cd]indol-8-yl)acetamide] was tested. Which “tumor growth vs control” value (SAS cells xenograft; 10 mg/kg intraperitoneally 4 days/week, p=0.083) did it give?
Answer: could barely suppress tumor growth

Question: What about the “tumor growth vs control” value (SAS cells xenograft; 20 mg/kg intraperitoneally 4 days/week, p=0.081) of the same molecule?
Answer: could barely suppress tumor growth

Question: What about the “cell viability / proliferation (MTT)” value (SAS cells [1]) of the same molecule?
Answer: dose-dependent inhibition

Question: What about the IC50 (SAS cells [1]; MTT, read-out: half-maximal inhibitory concentration (IC50)) of the same molecule?
Answer: 120 to 400 nM

Question: What about the “cell viability / proliferation (MTT)” value (OEC-M1 cells [2]) of the same molecule?
Answer: dose-dependent inhibition

Question: What about the IC50 (OEC-M1 cells [2]; OECM1, MTT, read-out: half-maximal inhibitory concentration (IC50)) of the same molecule?
Answer: 10 µM

Question: What about the “cell apoptosis (Annexin V and PI staining)” value (OC3 cells) of the same molecule?
Answer: significantly exacerbated cell apoptosis

Question: And the “growth of PDX tumors vs control” value (patient #3 PDX)?
Answer: partially but not significantly inhibit the growth

Question: What about the “phosphorylation of CHK1 at Ser296” value (CHK1) of the same molecule?
Answer: specifically reduce phosphorylation of CHK1

Question: And the “growth of PDX tumors vs control” value (patient #2 PDX)?
Answer: partially but not significantly inhibit the growth

Question: What about the “cell apoptosis (Annexin V and PI staining)” value (SAS cells [6]) of the same molecule?
Answer: significantly exacerbated cell apoptosis

Question: And the colony-forming ability (SAS cells [4])?
Answer: significantly impaired the colony-forming ability

Question: And the “cell apoptosis (Annexin V and PI staining)” value (OEC-M1 cells [7])?
Answer: significantly exacerbated cell apoptosis

Question: And the “growth of PDX tumors vs control” value (patient #1 PDX)?
Answer: partially but not significantly inhibit the growth

Question: And the colony-forming ability (OEC-M1 cells [5])?
Answer: significantly impaired the colony-forming ability
